Results reported in patent US20210123066A1, “METHODS OF REGENERATION AND TRANSFORMATION OF STEVIA PLANT AND TRANSGENIC STEVIA PLANTS HAVING ENHANCED STEVIOL GLYCOSIDES CONTENT” (TEMASEK LIFE SCIENCES LABORATORY LIMITED, priority 2018, published 2021).

Tested on: SrUGT76G1
Assay: In vitro UDP-glucosyltransferase activity assay with GST-SrUGT76G1
Type: biochemical, Stevia rebaudiana
Conditions: for product formed by GST-UGT76G1 from the acceptor (HPLC): 5 mM UDP-glucose, 16 h; for product formed by GST-SrUGT76G1 from the acceptor (TLC): 50 μM substrate, UDP-glucose donor, 30° C., 2 h
Protocol: Expression of recombinant UGT76G1 and UDP-glucosyltransferase activity assay: The full-length cDNA of SrUGT76G1 was cloned into pDEST15 to obtain GST-tag fused protein. The resulting expression vector was transformed into E. Coli BL21 (DE3)-derived Rosetta strain (Novagen) and grown under appropriate antibiotics. GST-tagged SrUGT76G1 recombinant protein was purified by glutathione agarose beads (ThermoFisher Scientific). About 1 μg of recombinant protein was used for enzyme assay with 50 μM of the substrate (dulcoside A or Reb A) in an assay buffer (50 mM HEPES, pH 7.5, 3 mM MgCl2, 10 μg/ml Bovine Serum Albumin). To initiate the reaction, a 1 mM UDP-glucose mixture (997.5 μM UDP-glucose and […] UDP-[^14C]-glucose, 2.78 kBq, Amersham Biosciences) was added. In vitro glucosyltransferase activity assays were performed as described by Richman et al. (2005). The assay was carried out at 30° C. for 2 h and extracted twice with 100 μl of water-saturated 1-butanol. Pooled fractions were dried in a vacuum centrifuge and resuspended in 10 μl water-saturated 1-butanol for thin layer chromatography (TLC) analysis. The TLC was performed with 10 μl of reaction products using chloroform:methanol:water (15:10:2 v/v/v) as the mobile phase on a silica gel-coated TLC plate (Fluka) in a mobile phase saturated glass chamber. SGs standards were run under the same condition. After air-drying, the image on the TLC plate was captured on a storage phosphor screen in a phosphorimager cassette (Bio-Rad) for 2-3 d and visualized on a Typhoon 9200 imager (Amersham Biosciences).
HPLC analysis of in vitro glucosyltransferase activity assay mixture: In vitro glucosyltransferase activity assay was performed as indicated in the TLC analysis, but 5 mM of UDP-glucose was used without UDP-[^14C]-glucose and the incubation time was increased to 16 h. Samples were extracted 3 times with water-saturated 1-butanol and dried completely in a vacuum centrifuge. Dried samples were dissolved in MeOH for UHPLC analysis in accordance with the method mentioned for SGs content analysis.

product formed by GST-UGT76G1 from the acceptor (HPLC)	product formed by GST-SrUGT76G1 from the acceptor (TLC)	SMILES
Reb I		C=C1C[C@@]23CC[C@H]4[C@@](C)(CCC[C@@]4(C)C(=O)O[C@@H]4O[C@H](CO)[C@@H](O)[C@H](O)[C@H]4O)[C@@H]2CC[C@]1(O[C@@H]1O[C@H](CO)[C@@H](O)[C@H](O[C@@H]2O[C@H](CO)[C@@H](O)[C@H](O)[C@H]2O)[C@H]1O[C@@H]1O[C@H](CO)[C@@H](O)[C@H](O)[C@H]1O)C3 [Reb A, rebaudioside A]
Reb C	Reb C	C=C1C[C@@]23CC[C@H]4[C@@](C)(CCC[C@@]4(C)C(=O)O[C@@H]4O[C@H](CO)[C@@H](O)[C@H](O)[C@H]4O)[C@@H]2CC[C@]1(O[C@@H]1O[C@H](CO)[C@@H](O)[C@H](O)[C@H]1O[C@@H]1O[C@@H](C)[C@H](O)[C@@H](O)[C@H]1O)C3 [dulcoside A]
Reb A	Reb A	C=C1C[C@@]23CC[C@H]4[C@@](C)(CCC[C@@]4(C)C(=O)O[C@@H]4O[C@H](CO)[C@@H](O)[C@H](O)[C@H]4O)[C@@H]2CC[C@]1(O[C@@H]1O[C@H](CO)[C@@H](O)[C@H](O)[C@H]1O[C@@H]1O[C@H](CO)[C@@H](O)[C@H](O)[C@H]1O)C3 [stevioside]
